In publication PMC11012124, “Synthesis of Novel Triazine-Based Chalcones and 8,9-dihydro-7H-pyrimido[4,5-b][1,4]diazepines as Potential Leads in the Search of Anticancer, Antibacterial and Antifungal Agents” (International Journal of Molecular Sciences, 2024):
In brackets after ≈: the same amount, converted by molar mass.

How the values were obtained:
[1] = test system: HL-60(TB); assay: cells; details: Homo sapiens, HL-60, 48 h; for CC50: read-out: LC50
[2] = test system: HS 578T; assay: cells; details: Homo sapiens, 48 h; for CC50: read-out: LC50
[3] = test system: SNB-75; assay: cells; details: Homo sapiens, SNB-75, 48 h; for CC50: read-out: LC50
[4] = test system: NCI-H322M; assay: cells; details: Homo sapiens, 48 h; for CC50: read-out: LC50
[5] = test system: UACC-257; assay: cells; details: Homo sapiens, UACC-257, 48 h; for CC50: read-out: LC50
[6] = test system: MCF7; assay: cells; details: Homo sapiens, MCF7, 48 h; for CC50: read-out: LC50
[7] = test system: M. tuberculosis ATCC 27294; assay: Antitubercular broth microdilution MIC; type: cell-based; details: Mycobacterium tuberculosis; M. tuberculosis ATCC 27294 (H37Rv); read-out: Minimum inhibitory concentration (MIC)
[8] = test system: A. flavus (ATCC 9170); assay: Antifungal broth microdilution (CLSI); type: cell-based; details: ATCC9170; Afl: Aspergillus flavus
Outline: (§1)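 Broth microdilution followed CLSI M27-A3 for yeasts and the filamentous-fungi reference method, in 200 μL final volume with DMSO-matched growth controls. Plates were incubated in the dark and humid at 30 °C for a time suited to each fungus; testing was done in triplicate.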

[9] = test system: Cryptococcus neoformans (ATCC 32264); assay: Antifungal broth microdilution (CLSI); type: cell-based; details: ATCC32264; Cn: Cryptococcus neoformans
Outline: as §1

[10] = test system: RPMI-8226; assay: cells; details: Homo sapiens, RPMI-8226, 48 h; for CC50: read-out: LC50
[11] = test system: NCI-H522; assay: cells; details: Homo sapiens, NCI-H522, 48 h; for CC50: read-out: LC50
[12] = test system: OVCAR-8; assay: cells; details: Homo sapiens, OVCAR-8, 48 h; for CC50: read-out: LC50
[13] = test system: NCI-H226; assay: cells; details: Homo sapiens, NCI-H226, 48 h; for CC50: read-out: LC50
[14] = test system: NCI/ADR-RES; assay: cells; details: Homo sapiens, 48 h
[15] = test system: DU-145; assay: cells; details: Homo sapiens, DU-145, 48 h; for CC50: read-out: LC50
[16] = test system: N. gonorrhoeae ATCC 49226; assay: MIC on GC agar plates; type: cell-based, Neisseria gonorrhoeae; details: Neisseria gonorrhoeae, ATCC49226, read-out: MIC
Outline: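 N. gonorrhoeae (1 × 10^4 CFU) was spotted onto IsoVitaleX-supplemented (1%) GC agar containing graded compound levels. The lowest inhibitory concentration was recorded as the MIC, with oxidase testing used to verify growth, and each assay was done in duplicate on at least two separate occasions.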

[17] = test system: MDA-MB-468; assay: cells; details: Homo sapiens, MDA-MB-468, 48 h; for CC50: read-out: LC50
[18] = test system: UACC-62; assay: cells; details: Homo sapiens, UACC-62, 48 h; for CC50: read-out: LC50
[19] = test system: BT-549; assay: cells; details: Homo sapiens, BT-549, 48 h; for CC50: read-out: LC50
[20] = test system: 60 cancer cell lines; assay: NCI-60 one-dose screen (10 μM); type: cell-based; details: Homo sapiens; one dose of 10 μM, mean over 60 cancer cell lines; read-out: Mean Growth Percent (MGP)
Source text: Additionally, the mean of the growth percentages (MGP) of each compound against all the 60 cancer cell lines is also reported, which is used as one of the selection criteria to continue with tests at five concentration doses.

[21] = test system: M14; assay: cells; details: Homo sapiens, M14, 48 h; for CC50: read-out: LC50
[22] = test system: OVCAR-4; assay: cells; details: Homo sapiens, OVCAR-4, 48 h; for CC50: read-out: LC50
[23] = test system: TK-10; assay: cells; details: Homo sapiens, TK-10, 48 h; for CC50: read-out: LC50
[24] = test system: MDA-MB-435; assay: cells; details: Homo sapiens, MDA-MB-435, 48 h; for CC50: read-out: LC50
[25] = test system: SNB-19; assay: cells; details: Homo sapiens, SNB-19, 48 h; for CC50: read-out: LC50
[26] = test system: SN12C; assay: cells; details: Homo sapiens, 48 h; for CC50: read-out: LC50
[27] = test system: SF-539; assay: cells; details: Homo sapiens, SF-539, 48 h; for CC50: read-out: LC50, SF-539, 48 h
[28] = test system: SR; assay: cells; details: Homo sapiens, 48 h

CN(C)c1nc(NCCNS(=O)(=O)c2ccc(C(=O)/C=C/c3ccc(Cl)cc3)cc2)nc(Nc2ccc(F)cc2)n1 [24e]
GI50 [1]: 4.39 µM
CC50 [1]: > 100 µM
GI50 [2]: 11.4 µM
CC50 [2]: 58.1 µM
GI50 [3]: 5.6 µM
CC50 [3]: 25.7 µM
GI50 [4]: 9.36 µM
CC50 [4]: 24.9 µM
GI50 [5]: 8.36 µM
CC50 [5]: 21.8 µM
GI50 [6]: 2.28 µM
CC50 [6]: 6.33 µM
MIC [7]: 25 µg/mL (≈ 41.9 µM)
MIC [8]: > 250 µg/mL
MIC [9]: > 250 µg/mL
GI50 [10]: 2.47 µM
CC50 [10]: 7.11 µM
GI50 [11]: 7.1 µM
CC50 [11]: 22 µM
GI50 [12]: 10.2 µM
CC50 [12]: 23.7 µM
GI50 [13]: 6.14 µM
CC50 [13]: 24.3 µM
GI50 [14]: 5.49 µM
CC50 ([14]; read-out: LC50): 18.4 µM
GI50 [15]: 9.7 µM
CC50 [15]: 21.8 µM
MIC [16]: 500 µg/mL (≈ 839 µM)
GI50 [17]: 3.71 µM
CC50 [17]: 14.8 µM
GI50 [18]: 5.41 µM
CC50 [18]: 18.7 µM
GI50 [19]: 11.6 µM
CC50 [19]: 23.9 µM
activity at 10 µM [20]: -46.6%
GI50 [21]: 4.14 µM
CC50 [21]: 15.3 µM
GI50 [22]: 5.92 µM
CC50 [22]: 22 µM
GI50 [23]: 11.7 µM
CC50 [23]: 30.3 µM
GI50 [24]: 3.8 µM
CC50 [24]: 14 µM
GI50 [25]: 9.18 µM
CC50 [25]: 21.3 µM
GI50 [26]: 3.79 µM
CC50 [26]: 15.9 µM
GI50 [27]: 10.1 µM
CC50 [27]: 22 µM

COc1cc(C2CC(c3ccc(Cl)cc3)=Nc3c(N)nc(N)nc3N2)ccc1Oc1nc(Nc2ccc(F)cc2)nc(N(C)C)n1 (centres unmarked) [29e]
GI50 [1]: 44.7 µM
CC50 [1]: > 100 µM
GI50 [2]: 84.8 µM
CC50 [2]: > 100 µM
GI50 [3]: 3.24 µM
CC50 [3]: > 100 µM
GI50 [4]: > 100 µM
CC50 [4]: > 100 µM
GI50 [5]: > 100 µM
CC50 [5]: > 100 µM
GI50 [6]: 9.9 µM
CC50 [6]: > 100 µM
GI50 [28]: 3.41 µM
CC50 ([28]; read-out: LC50): > 100 µM
MIC [7]: 1.2 µg/mL (≈ 1.87 µM)
MIC [8]: > 250 µg/mL
MIC [9]: > 250 µg/mL
GI50 [10]: 26.4 µM
CC50 [10]: > 100 µM
GI50 [11]: > 100 µM
CC50 [11]: > 100 µM
GI50 [12]: > 100 µM
CC50 [12]: > 100 µM
GI50 [13]: > 100 µM
CC50 [13]: > 100 µM
GI50 [15]: > 100 µM
CC50 [15]: > 100 µM
MIC [16]: ≥ 500 µg/mL
GI50 [17]: 17.8 µM
CC50 [17]: > 100 µM
GI50 [18]: > 100 µM
CC50 [18]: > 100 µM
GI50 [19]: 35.5 µM
CC50 [19]: > 100 µM
activity at 10 µM [20]: 40.9%
GI50 [21]: > 100 µM
CC50 [21]: > 100 µM
GI50 [22]: 18.9 µM
CC50 [22]: > 100 µM
GI50 [23]: > 100 µM
CC50 [23]: > 100 µM
GI50 [24]: > 100 µM
CC50 [24]: > 100 µM
GI50 [25]: > 100 µM
CC50 [25]: > 100 µM
GI50 [26]: > 100 µM
CC50 [26]: > 100 µM
GI50 [27]: > 100 µM
CC50 [27]: > 100 µM
